In US10472334B2, “Small molecules for inhibiting male fertility” (The University of North Carolina at Chapel Hill, priority 2014, dated 2019):
Read-outs that look alike come from different tables or passages of the source.

Key:
[1] = In vitro absorption, Caco-2 permeability and recovery; assay type: in vitro ADME; conditions: human, Caco-2; read-out: permeability to Caco-2 cells
Procedure: (§1) The in vitro absorption was measured using methods described in Hidalgo, I. J. et al. (1989), Gastroenterology, 96: 736-749.
(§2) The apparent permeability coefficient (Papp) of the test compound was calculated as follows:
(§3) [formula] where VR is the volume of the receiver chamber. CR, end is the concentration of the test compound in the receiver chamber at the end time point, Δt is the incubation time and A is the surface area of the cell monolayer. CD, mid is the calculated mid-point concentration of the test compound in the donor side, which is the mean value of the donor concentration at time 0 minute and the donor concentration at the end time point. CR, mid is the mid-point concentration of the test compound in the receiver side, which is one half of the receiver concentration at the end time point. Concentrations of the test compound were expressed as peak areas of the test compound.
(§4) The recovery of the test compound was calculated as follows: […]
(§5) where VD and VR are the volumes of the donor and receiver chambers, respectively. CD,end is the concentration of the test compound in the donor sample at the end time point. CR,end is the concentration of the test compound in the receiver sample at the end time point. CD0 is the concentration of the test compound in the donor sample at time zero. Concentrations of the test compound are expressed as peak areas of the test compound. […]

[2] = system: Caco-2 cells; test: as above; assay type: in vitro ADME
Procedure: as §1, §2, §3, §4, §5

[3] = In vitro metabolism, human liver microsomes; assay type: in vitro ADME; conditions: read-out: Human liver microsomes metabolism T½
Procedure: In vitro metabolism was evaluated using the methods described in Obach, R. S. et al. (1997), J. Pharmacol. Exp. Ther., 283: 46-58.
Intrinsic Clearance (microsomes, S9, cryopreserved hepatocytes, recombinant CYP, recombinant UGT) Metabolic stability, expressed as percent of the parent compound remaining, was calculated by comparing the peak area of the compound at the time point relative to that at time-O. The half-life (T½) was estimated from the slope of the initial linear range of the logarithmic curve of compound remaining (%) vs. time, assuming the first-order kinetics. The apparent intrinsic clearance (CLint, in μL/min/pmol, μL/min/mg or μL/min/Mcell) was calculated according to the following formula: […]

[4] = In vitro toxicity, cell viability; assay type: cell-based
Procedure: The percent of control activity was calculated by comparing the fluorescence reading in the presence of test compound to that in the absence of a test (control) compound. Subsequently, the percent of inhibition was calculated by subtraction of the percent of control value from 100. IC50 values were determined by non-linear regression analysis of the concentration-response curves. These parameters are obtained by Hill equation curve fitting. See, for example, Nociari, M. M. et al. (1998), J. Immunol. Meth., 213: 157-167.

[5] = biological target: T1, recombinant human EPPIN (Homo sapiens, UniProt O95925); test: AlphaScreen epitope assay: inhibition of anti-EPPIN (S21C, C-terminal domain) antibody binding to histidine-tagged recombinant human EPPIN; conditions: Figure 2; TZ4_121 concentration-response, percent of control value vs. log concentration; His-tagged rhEPPIN (E. coli, lacks part of N-terminal secretory signal) on NTA-donor beads, anti-EPPIN S21C on protein A-acceptor beads; spread printed +/- 10.4
T1 construct: His-tagged (FLAG tag also stated); E. coli M15[pREP-4], Ni-NTA purified; AlphaScreen with anti-EPPIN S21C antibody
Excerpt: Two assays for high throughput screening (HTS) of compounds have been established and validated. In one embodiment, these assays are based on an adaptation of the AlphaScreen™ assay developed by PerkinElmer (Waltham, Mass.). In the AlphaScreen™ (amplified luminescent proximity homogeneous assay) assay donor and acceptor beads (˜200 nm) are employed to hold interacting protein molecules. When the interacting protein molecules bind (for example EPPIN {on the donor bead} and anti-EPPIN {on the acceptor bead}), singlet state oxygen molecules diffuse from the donor bead to the acceptor bead (˜4 μsec) and fluorophores subsequently emit light at 520-620 nm. In the primary compound screen, histidine-tagged recombinant human EPPIN is attached to NTA-donor beads and anti-EPPIN (S21C; against the EPPIN C-terminal domain) is attached to protein A-acceptor beads. This epitope specific assay gives strong and stable binding between EPPIN and the antibody. […]

T1 sequence (O95925 22-133): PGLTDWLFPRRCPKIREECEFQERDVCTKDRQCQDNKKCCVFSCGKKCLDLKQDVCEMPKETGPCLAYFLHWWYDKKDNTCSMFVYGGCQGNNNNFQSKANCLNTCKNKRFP

Papp [1]: 0.2 ×10⁻⁶ cm/s | Recovery from the permeability assay [2]: 93% | half-life [3]: 41 min | IC50 [5]: 38.2 µM
SMILES: CCOC(=O)CSc1nc(NNC(=O)OC)nc(Nc2ccc(NC(=O)OC)c(O)c2)n1 [TZ4_121, [4-(3-Hydroxy-4-methoxycarbonylamino-phenylamino)-6-(N′methoxycarbonyl-hydrazino)-1,3,5-triazin-2-ylsulfanyl]-acetic acid ethyl ester]
IC50 ([4]; FIG. 2, read-out: cell viability IC50): ~17 µM | IC50 ([4]; read-out: In vitro toxicology IC50): ~20 µM
